Data published in ChEMBL document CHEMBL3885861, “Open TG-GATES”.

Species on record: Rattus norvegicus
Test: Open TG-GATES - Regimen: Daily Repeat
Assay type: toxicity, organism-based, Sprague-Dawley
Design: regimen Daily Repeat, gender Male, age 6 weeks
Details: in vivo, po, 0 mg/kg, route gavage, dose level Control; for APTT / Bas / Eos / Fbg / Hb / Ht / Lym / MCH / MCHC / MCV / Mono / Neu / PT / Plat / RBC / Ret / WBC: tissue Blood; for KIDNEY_L / KIDNEY_R / KIDNEY_TOTAL: tissue Kidney; for LIVER: tissue Liver; for A/G / ALP / ALT / AST / BUN / CRE / Ca / Cl / DBIL / GLC / IP / K / LDH / Na / PL / RALB / TBIL / TC / TG / TP / gamma-GTP: tissue Plasma

CN(C)CCC(c1ccc(Cl)cc1)c1ccccn1 (configuration not stated) [CHLORPHENIRAMINE]
TERMINAL_BW (72 h, time 3 day): 224.6 g
APTT (72 h, time 3 day): 23.2 s
Bas (72 h, time 3 day): 0%
Eos (72 h, time 3 day): 1.2%
Fbg (72 h, time 3 day): 295.2 mg/dL
Hb (72 h, time 3 day): 13.4 g/dL
Ht (72 h, time 3 day): 41.7%
Lym (72 h, time 3 day): 77.6%
MCH (72 h, time 3 day): 20.6 pg
MCHC (72 h, time 3 day): 32.1%
MCV (72 h, time 3 day): 64.2 fL
Mono (72 h, time 3 day): 2.8%
Neu (72 h, time 3 day): 17.4%
PT (72 h, time 3 day): 14.5 s
Plat (72 h, time 3 day): 127.5 x10_4/uL
RBC (72 h, time 3 day): 650.8 x10_4/ul
Ret (72 h, time 3 day): 6.9%
WBC (72 h, time 3 day): 76.4 x10_2/uL
KIDNEY_L (72 h, time 3 day): 0.9 g
KIDNEY_R (72 h, time 3 day): 0.9 g
KIDNEY_TOTAL (72 h, time 3 day): 1.9 g
LIVER (72 h, time 3 day): 10.1 g
A/G (72 h, time 3 day): 0.9
ALP (72 h, time 3 day): 1824 IU/L
ALT (72 h, time 3 day): 44.2 IU/L
AST (72 h, time 3 day): 69.4 IU/L
BUN (72 h, time 3 day): 14.6 mg/dL
CRE (72 h, time 3 day): 0.2 mg/dL
Ca (72 h, time 3 day): 10.5 mg/dL
Cl (72 h, time 3 day): 107.2 meq/L
DBIL (72 h, time 3 day): 0.014 mg/dL
GLC (72 h, time 3 day): 182.4 mg/dL
IP (72 h, time 3 day): 7.7 mg/dL
K (72 h, time 3 day): 4.5 meq/L
LDH (72 h, time 3 day): 109.4 IU/L
Na (72 h, time 3 day): 142.2 meq/L
PL (72 h, time 3 day): 151.6 mg/dL
RALB (72 h, time 3 day): 2.7 g/dL
TBIL (72 h, time 3 day): 0.034 mg/dL
TC (72 h, time 3 day): 79 mg/dL
TG (72 h, time 3 day): 87.8 mg/dL
TP (72 h, time 3 day): 5.8 g/dL
gamma-GTP (72 h, time 3 day): 1.4 IU/L
TERMINAL_BW ([…], time 7 day): 265.1 g
TERMINAL_BW ([…], time 14 day): 314.1 g
TERMINAL_BW ([…], time 28 day): 409.3 g
APTT ([…], time 7 day): 18.7 s
Bas ([…], time 7 day): 0%
Eos ([…], time 7 day): 0.8%
Fbg ([…], time 7 day): 323.4 mg/dL
Hb ([…], time 7 day): 14 g/dL
Ht ([…], time 7 day): 43.3%
Lym ([…], time 7 day): 78.6%
MCH ([…], time 7 day): 20.5 pg
MCHC ([…], time 7 day): 32.4%
MCV ([…], time 7 day): 63.3 fL
Mono ([…], time 7 day): 2.8%
Neu ([…], time 7 day): 16.6%
PT ([…], time 7 day): 13.9 s
Plat ([…], time 7 day): 113.9 x10_4/uL
RBC ([…], time 7 day): 684.8 x10_4/ul
Ret ([…], time 7 day): 5.9%
WBC ([…], time 7 day): 83.1 x10_2/uL
APTT ([…], time 14 day): 20.3 s
Bas ([…], time 14 day): 0.4%
Eos ([…], time 14 day): 1%
Fbg ([…], time 14 day): 308.2 mg/dL
Hb ([…], time 14 day): 14.8 g/dL
Ht ([…], time 14 day): 45.2%
Lym ([…], time 14 day): 76.8%
MCH ([…], time 14 day): 20.4 pg
MCHC ([…], time 14 day): 32.7%
MCV ([…], time 14 day): 62.2 fL
Mono ([…], time 14 day): 2.2%
Neu ([…], time 14 day): 18.8%
PT ([…], time 14 day): 14.5 s
Plat ([…], time 14 day): 111 x10_4/uL
RBC ([…], time 14 day): 727.2 x10_4/ul
Ret ([…], time 14 day): 3.8%
WBC ([…], time 14 day): 90.4 x10_2/uL
APTT ([…], time 28 day): 17.8 s
Bas ([…], time 28 day): 0.2%
Eos ([…], time 28 day): 1.2%
Fbg ([…], time 28 day): 280.8 mg/dL
Hb ([…], time 28 day): 15.4 g/dL
Ht ([…], time 28 day): 45.7%
Lym ([…], time 28 day): 76.4%
MCH ([…], time 28 day): 18.9 pg
MCHC ([…], time 28 day): 33.7%
MCV ([…], time 28 day): 56.2 fL
Mono ([…], time 28 day): 2%
Neu ([…], time 28 day): 19.8%
PT ([…], time 28 day): 14.5 s
Plat ([…], time 28 day): 115.9 x10_4/uL
RBC ([…], time 28 day): 813.8 x10_4/ul
Ret ([…], time 28 day): 2.5%
WBC ([…], time 28 day): 96.5 x10_2/uL
KIDNEY_L ([…], time 7 day): 1 g
KIDNEY_R ([…], time 7 day): 1 g
KIDNEY_TOTAL ([…], time 7 day): 2.1 g
KIDNEY_L ([…], time 14 day): 1.1 g
KIDNEY_R ([…], time 14 day): 1.1 g
KIDNEY_TOTAL ([…], time 14 day): 2.2 g
KIDNEY_L ([…], time 28 day): 1.4 g
KIDNEY_R ([…], time 28 day): 1.4 g
KIDNEY_TOTAL ([…], time 28 day): 2.8 g
LIVER ([…], time 7 day): 12.2 g
LIVER ([…], time 14 day): 12.9 g
LIVER ([…], time 28 day): 17.3 g
A/G ([…], time 7 day): 0.8
ALP ([…], time 7 day): 1518.2 IU/L
ALT ([…], time 7 day): 43.2 IU/L
AST ([…], time 7 day): 65.8 IU/L
BUN ([…], time 7 day): 15.4 mg/dL
CRE ([…], time 7 day): 0.2 mg/dL
Ca ([…], time 7 day): 11.6 mg/dL
Cl ([…], time 7 day): 104.8 meq/L
DBIL ([…], time 7 day): 0.018 mg/dL
GLC ([…], time 7 day): 193.8 mg/dL
IP ([…], time 7 day): 8.1 mg/dL
K ([…], time 7 day): 4.2 meq/L
LDH ([…], time 7 day): 90.8 IU/L
Na ([…], time 7 day): 143.2 meq/L
PL ([…], time 7 day): 166.4 mg/dL
RALB ([…], time 7 day): 2.8 g/dL
TBIL ([…], time 7 day): 0.034 mg/dL
TC ([…], time 7 day): 86.6 mg/dL
TG ([…], time 7 day): 139.6 mg/dL
TP ([…], time 7 day): 6.1 g/dL
gamma-GTP ([…], time 7 day): 1 IU/L
A/G ([…], time 14 day): 0.8
ALP ([…], time 14 day): 1632.2 IU/L
ALT ([…], time 14 day): 38.2 IU/L
AST ([…], time 14 day): 66.4 IU/L
BUN ([…], time 14 day): 15.6 mg/dL
CRE ([…], time 14 day): 0.2 mg/dL
Ca ([…], time 14 day): 10.9 mg/dL
Cl ([…], time 14 day): 106.4 meq/L
DBIL ([…], time 14 day): 0.016 mg/dL
GLC ([…], time 14 day): 187.2 mg/dL
IP ([…], time 14 day): 6.9 mg/dL
K ([…], time 14 day): 4.2 meq/L
LDH ([…], time 14 day): 77 IU/L
Na ([…], time 14 day): 143.4 meq/L
PL ([…], time 14 day): 153.4 mg/dL
RALB ([…], time 14 day): 2.8 g/dL
TBIL ([…], time 14 day): 0.038 mg/dL
TC ([…], time 14 day): 72.6 mg/dL
TG ([…], time 14 day): 126 mg/dL
TP ([…], time 14 day): 6.1 g/dL
gamma-GTP ([…], time 14 day): 1 IU/L
A/G ([…], time 28 day): 0.8
ALP ([…], time 28 day): 1089.8 IU/L
ALT ([…], time 28 day): 37.2 IU/L
AST ([…], time 28 day): 60.4 IU/L
BUN ([…], time 28 day): 17.4 mg/dL
CRE ([…], time 28 day): 0.2 mg/dL
Ca ([…], time 28 day): 10.6 mg/dL
Cl ([…], time 28 day): 106.8 meq/L
DBIL ([…], time 28 day): 0.016 mg/dL
GLC ([…], time 28 day): 186.2 mg/dL
IP ([…], time 28 day): 6.3 mg/dL
K ([…], time 28 day): 4.2 meq/L
LDH ([…], time 28 day): 77.4 IU/L
Na ([…], time 28 day): 144.8 meq/L
PL ([…], time 28 day): 168.4 mg/dL
RALB ([…], time 28 day): 2.9 g/dL
TBIL ([…], time 28 day): 0.026 mg/dL
TC ([…], time 28 day): 79.6 mg/dL
TG ([…], time 28 day): 174 mg/dL
TP ([…], time 28 day): 6.4 g/dL
gamma-GTP ([…], time 28 day): 1 IU/L
